Data reported in paper PMC6405930, “Conservation of the Amyloid Interactome Across Diverse Fibrillar Structures” (Scientific Reports, 2019).

Columns and labels:
C-36 fibrils [1] = biological target: T1, C-36 fibrils (Homo sapiens, UniProt P01009); experiment: Fibril titration with ANS (fluorescence); format: binding; settings: 2.5 μg aggregate material, ANS 20 to 167 μM
T1 construct: the 36 residue C-terminal fragment of α1-antitrypsin (C-36)
Description: (§1) Fibril material (2.5 μg) was set up in 50 μL phosphate buffer in a 96 well half-area NBS plate (NUNC/Terma). Stepwise ANS titration was conducted from 20 to 167 μM with 100 sec mixing (300 rpm) before each measurement using a FLUOstar Omega plate reader (excitation at […], emission at 485 nm).

[2] = tested on: chymotrypsinogen aggregates; experiment: Fibril titration with ANS (fluorescence); format: binding; settings: 2.5 μg aggregate material, ANS 20 to 167 μM
Description: as §1

glucagon fibrils [3] = biological target: T2, glucagon fibrils (Homo sapiens, UniProt P01275); experiment: Fibril titration with ANS (fluorescence); format: binding; settings: 2.5 μg aggregate material, ANS 20 to 167 μM
T2 construct: fibrils of the peptide hormone glucagon
T2 sequence (P01275 53-81 limits assumed): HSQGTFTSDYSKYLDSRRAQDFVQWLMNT
Description: as §1

αSN fibrils [4] = biological target: T3, αSN fibrils (Homo sapiens, UniProt P37840); experiment: Fibril titration with ANS (fluorescence); format: binding; settings: 2.5 μg aggregate material, ANS 20 to 167 μM
Description: as §1

Ab1 fibrils [5] = tested on: T4, Ab1 fibrils; experiment: Fibril titration with ANS (fluorescence); format: binding, human; settings: 2.5 μg aggregate material, ANS 20 to 167 μM
T4 construct: Synthetic amyloid β peptide 1–40 was purchased from Caslo Aps (Lyngby, Denmark); purchased Caslo Aps (Lyngby, Denmark); host or cells: synthetic peptide
Description: as §1

Ab2 fibrils [6] = tested on: T5, Ab2 fibrils; experiment: Fibril titration with ANS (fluorescence); format: binding, human; settings: 2.5 μg aggregate material, ANS 20 to 167 μM
T5 construct: Two structurally distinct fibrils of the Aβ(1–40) peptide associated with AD
Description: as §1

FAS4 AD aggregates = tested on: T6, FAS4 AD aggregates; experiment: Fibril titration with ANS (fluorescence); format: binding, human; settings: 2.5 μg aggregate material, ANS 20 to 167 μM
T6 construct: a mutated version of the FAS1-4 domain of TGFBIp
Description: as §1

Ab1 fibrils [7] = tested on: T4, Ab1 fibrils; experiment: Determination of the binding capacity (dye depletion from supernatant); parameters: species or system human; settings: 2 nmol dye (20 µM) with 10 μg fibril material, one hour
Description: (§2) Control samples (without fibril material) were prepared similarly. Fibrils and fibril-bound ligand were pelleted by centrifugation (17,000 g, 30 min) and the supernatant (90 μL) was transferred to a 96 well half-area plate (Corning 3881).

Ab2 fibrils [8] = tested on: T5, Ab2 fibrils; experiment: as above; parameters: species or system human; settings: 2 nmol dye (20 µM) with 10 μg fibril material, one hour
Description: as §2

C-36 fibrils [9] = biological target: T1, C-36 fibrils; experiment: as above; settings: 2 nmol dye (20 µM) with 10 μg fibril material, one hour
Description: as §2

glucagon fibrils [10] = biological target: T2, glucagon fibrils; experiment: as above; settings: 2 nmol dye (20 µM) with 10 μg fibril material, one hour
Description: as §2

αSN fibrils [11] = biological target: T3, αSN fibrils; experiment: as above; settings: 2 nmol dye (20 µM) with 10 μg fibril material, one hour
Description: as §2

[12] = biological target: fibrils of a short Aβ fragment; parameters: method as in PMID 23878726; settings: read-out: dissociation constant; cited from earlier work

T1 sequence (P01009 383-418 limits assumed): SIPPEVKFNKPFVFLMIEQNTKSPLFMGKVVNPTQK

Row | ANS fluorescence signal (C-36 fibrils [1]) | ANS fluorescence signal (glucagon fibrils [3]) | ANS fluorescence signal (αSN fibrils [4]) | Ligand bound (binding capacity) (Ab1 fibrils [7]) [nmol/mg fibril] | Ligand bound (binding capacity) (Ab2 fibrils [8]) [nmol/mg fibril] | Ligand bound (binding capacity) (C-36 fibrils [9]) [nmol/mg fibril] | Ligand bound (binding capacity) (glucagon fibrils [10]) [nmol/mg fibril] | Ligand bound (binding capacity) (αSN fibrils [11]) [nmol/mg fibril] | SMILES | ANS fluorescence signal [2] | ANS fluorescence signal (Ab1 fibrils [5]) | ANS fluorescence signal (Ab2 fibrils [6]) | ANS fluorescence signal (FAS4 AD aggregates) | Kd [12] [µM]
1 | little or no signal at all | little or no signal at all | significant fluorescence enhancements | – | – | – | – | – | O=S(=O)(O)c1cccc2cccc(Nc3ccccc3)c12 [ANS, 8-anilinonaphthalene sulfonate] | intermediate signal intensities | little or no signal at all | little or no signal at all | intermediate signal intensities | –
2 | – | – | – | 45 | 54 | 197 | 128 | 123 | O=C(O)c1cc(/C=C/c2ccc(/C=C/c3ccc(O)c(C(=O)O)c3)c(F)c2)ccc1O [FSB, (E,E)-1-fluoro-2,5-bis-(3-hydroxycarbonyl-4-hydroxy)styrylbenzene] | – | – | – | – | –
3 | – | – | – | 7 | 4 | 28 | 6 | 6 | O=S(=O)(O)c1cc(S(=O)(=O)O)c2c(/N=N/c3ccccc3)c(O)ccc2c1 [Orange-G] | – | – | – | – | ~50
